Measured values taken from PubChem BioAssay AID248 (DTP/NCI, 2004).
Several values for one entry are separate records, joined by “and”; a condition that tells them apart may be missing. Identical values can stand only once. Inconclusive results and toxic doses are left out. No stated cut-off is given here; in the data, active means T/C of 150% or more; inactive means T/C below 125%.

Test system: L1210 leukemia ip in BDF1 mice, survival T/C
Assay: NCI In Vivo Anticancer Drug Screen. Data for tumor model L1210 Leukemia (intraperitoneal) in B6D2F1 (BDF1) mice
Settings: endpoint: mean survival time, higher = longer survival
Summary of the method: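 Value reflects the ratio of survival in compound-treated mice to survival in vehicle-treated controls, with both groups carrying the same transplanted tumor.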

[1] = dose: 100.0 mg/kg/injection, schedule: Q01DX009 (ip), vehicle: saline with Tween-80
[2] = dose: 100.0 mg/kg/injection, schedule: Q04DX003 (ip), vehicle: saline with Tween-80
[3] = dose: 200.0 mg/kg/injection, schedule: Q01DX009 (ip), vehicle: saline with Tween-80
[4] = dose: 200.0 mg/kg/injection, schedule: Q04DX003 (ip), vehicle: saline with Tween-80
[5] = dose: 400.0 mg/kg/injection, schedule: Q01DX009 (ip), vehicle: saline with Tween-80
[6] = dose: 400.0 mg/kg/injection, schedule: Q04DX003 (ip), vehicle: saline with Tween-80
[7] = dose: 100.0 mg/kg/injection, schedule: Q04DX003 (ip), vehicle: Klucel (hydroxypropylcellulose) (HPC)
[8] = dose: 200.0 mg/kg/injection, schedule: Q04DX003 (ip), vehicle: Klucel (hydroxypropylcellulose) (HPC)
[9] = dose: 100.0 mg/kg/injection, schedule: Q04DX002 (ip), vehicle: saline with Tween-80
[10] = dose: 200.0 mg/kg/injection, schedule: Q04DX002 (ip), vehicle: saline with Tween-80
[11] = dose: 400.0 mg/kg/injection, schedule: Q04DX002 (ip), vehicle: saline with Tween-80
[12] = dose: 100.0 mg/kg/injection, schedule: Q01DX009 (ip), vehicle: Klucel (hydroxypropylcellulose) (HPC)
[13] = dose: 200.0 mg/kg/injection, schedule: Q01DX009 (ip), vehicle: Klucel (hydroxypropylcellulose) (HPC)
[14] = dose: 100.0 mg/kg/injection, schedule: Q01DX001 (ip), vehicle: Klucel (hydroxypropylcellulose) (HPC)
[15] = dose: 200.0 mg/kg/injection, schedule: Q01DX001 (ip), vehicle: Klucel (hydroxypropylcellulose) (HPC)
[16] = dose: 400.0 mg/kg/injection, schedule: Q01DX001 (ip), vehicle: Klucel (hydroxypropylcellulose) (HPC)
[17] = dose: 50.0 mg/kg/injection, schedule: Q04DX002 (ip), vehicle: Klucel (hydroxypropylcellulose) (HPC)
[18] = dose: 100.0 mg/kg/injection, schedule: Q04DX002 (ip), vehicle: Klucel (hydroxypropylcellulose) (HPC)
[19] = dose: 200.0 mg/kg/injection, schedule: Q04DX002 (ip), vehicle: Klucel (hydroxypropylcellulose) (HPC)

Measured: T/C

COCOCP(=O)(OC)OC
inactive: dose: 100.0 mg/kg/injection, schedule: Q01DX001 (ip), vehicle: acetone 102 % of control | dose: 100.0 mg/kg/injection, schedule: Q04DX003 (ip), vehicle: acetone 106 % of control | dose: 200.0 mg/kg/injection, schedule: Q01DX001 (ip), vehicle: acetone 98 % of control | dose: 200.0 mg/kg/injection, schedule: Q04DX003 (ip), vehicle: acetone 98 % of control | dose: 400.0 mg/kg/injection, schedule: Q01DX001 (ip), vehicle: acetone 95 % of control | dose: 400.0 mg/kg/injection, schedule: Q04DX003 (ip), vehicle: acetone 92 % of control

CC(=O)CC(=O)NC1CCCCC1
inactive: [1] 105 % of control | [2] 96 % of control | [3] 100 % of control | [4] 94 % of control | [5] 95 % of control | [6] 94 % of control

CC(=O)OC1CCC2(C)C3=C(CCC2C1(C)C)C1(C)CCC(c2ccc(C(C)C)oc2=O)C1(C)CC3 (stereo not drawn)
inactive: dose: 100.0 mg/kg/injection, schedule: Q01DX001 (sc), vehicle: steriod suspending solution 103 % of control | dose: 200.0 mg/kg/injection, schedule: Q01DX001 (sc), vehicle: steriod suspending solution 106 % of control | dose: 400.0 mg/kg/injection, schedule: Q01DX001 (sc), vehicle: steriod suspending solution 103 % of control

CC(=O)NCCCOc1ccc([N+](=O)[O-])cc1
inactive: [7] 101 % of control | [8] 91 % of control | dose: 400.0 mg/kg/injection, schedule: Q04DX003 (ip), vehicle: Klucel (hydroxypropylcellulose) (HPC) 92 % of control

O=[N+]([O-])c1ccc2nocc2c1
inactive: [7] 95 % of control

CCCCCCCCCCCC(=O)NC(=S)Nc1ccccc1F
inactive: [7] 95 % of control | [8] 87 % of control

CC(C)(C)C1=C[P+](c2ccccc2)(c2ccccc2)C(C(C)(C)C)=C[P+]1(c1ccccc1)c1ccccc1
inactive: dose: 12.5 mg/kg/injection, schedule: Q01DX009 (ip), vehicle: saline 94 % of control | dose: 12.5 mg/kg/injection, schedule: Q04DX003 (ip), vehicle: saline 96 % of control | dose: 25.0 mg/kg/injection, schedule: Q01DX009 (ip), vehicle: saline 104 % of control | dose: 25.0 mg/kg/injection, schedule: Q04DX003 (ip), vehicle: saline 122 % of control | dose: 50.0 mg/kg/injection, schedule: Q01DX009 (ip), vehicle: saline 100 % of control | dose: 50.0 mg/kg/injection, schedule: Q04DX003 (ip), vehicle: saline 108 % of control

CCC1CN2CCc3cc(OC)c(OC)cc3C2CC1CC1c2cc(OC)c(OC)cc2CCN1C(=O)C1CCCN1C(=O)OCc1ccccc1 (stereo not drawn)
inactive: dose: 50.0 mg/kg/injection, schedule: Q01DX001 (ip), vehicle: carboxymethylcellulose (CMC) 97 % of control | dose: 100.0 mg/kg/injection, schedule: Q01DX001 (ip), vehicle: carboxymethylcellulose (CMC) 101 % of control | dose: 200.0 mg/kg/injection, schedule: Q01DX001 (ip), vehicle: carboxymethylcellulose (CMC) 106 % of control | dose: 400.0 mg/kg/injection, schedule: Q01DX001 (ip), vehicle: carboxymethylcellulose (CMC) 97 % of control

ClC1=C(Cl)C2(Cl)C3C4CC(CC4Cl)C3C1(Cl)C2(Cl)Cl (stereo not drawn)
inactive: dose: 75.0 mg/kg/injection, schedule: Q01DX001 (ip), vehicle: steriod suspending solution 93 % of control | dose: 150.0 mg/kg/injection, schedule: Q01DX001 (ip), vehicle: steriod suspending solution 90 % of control | dose: 300.0 mg/kg/injection, schedule: Q01DX001 (ip), vehicle: steriod suspending solution 98 % of control

CNC(=O)Oc1ccc([N+](C)(C)C)cc1
inactive: dose: 9.5 mg/kg/injection, schedule: Q01DX001 (ip), vehicle: saline 109 % of control | dose: 19.0 mg/kg/injection, schedule: Q01DX001 (ip), vehicle: saline 100 % of control

OC/C=[CH]\[Sn]([c]1ccccc1)([c]1ccccc1)[c]1ccccc1
inactive: [9] 95 % of control | [10] 119 % of control | [11] 119 % of control

Cc1cc(Cl)nc(Cl)c1C#N
inactive: [12] 101 % of control | [7] 100 % of control | [13] 97 % of control | [8] 89 % of control

CCOC(=O)Nc1ccc(OCC)cc1
inactive: dose: 50.0 mg/kg/injection, schedule: Q01DX001 (ip), vehicle: Klucel (hydroxypropylcellulose) (HPC) 98 % of control | [14] 101 % of control | [15] 102 % of control and 106 % of control | [16] 97 % of control and 98 % of control

Nc1ccn(C2OC(COC(c3ccccc3)(c3ccccc3)c3ccccc3)C(O)C2O)c(=O)n1 (stereo not drawn)
inactive: dose: 100.0 mg/kg/injection, schedule: Q01DX005 (ip), vehicle: saline 101 % of control | dose: 200.0 mg/kg/injection, schedule: Q01DX005 (ip), vehicle: saline 112 % of control

CCOC(=O)C1Nc2ccc3ccccc3c2NC1=O (stereo not drawn)
inactive: [17] 93 % of control | [18] 97 % of control | [19] 90 % of control

COc1nc(Cl)nc(Cl)n1
inactive: dose: 6.0 mg/kg/injection, schedule: Q01DX Z (ip), vehicle: methylcellulose (MC) 89 % of control

ClC(Cl)(Cl)c1cccc(-c2nc(C(Cl)(Cl)Cl)nc(C(Cl)(Cl)Cl)n2)c1
inactive: [18] 106 % of control | [19] 90 % of control | dose: 400.0 mg/kg/injection, schedule: Q04DX002 (ip), vehicle: Klucel (hydroxypropylcellulose) (HPC) 100 % of control

O=[N+]([O-])c1cccc(-c2cnc(-c3ccccc3)cc2-c2ccccc2O)c1
inactive: [9] 94 % of control | [10] 94 % of control | [11] 102 % of control

NC(=O)CC(NC(=O)OCc1ccccc1)C(=O)O (stereo not drawn)
inactive: dose: 50.0 mg/kg/injection, schedule: Q01DX009 (ip), vehicle: Klucel (hydroxypropylcellulose) (HPC) 95 % of control | [12] 95 % of control | [13] 109 % of control

O=C(CC(O)(C(F)(F)F)C(F)(F)F)c1ccc(-c2ccccc2)cc1
inactive: dose: 50.0 mg/kg/injection, schedule: Q01DX009 (ip), vehicle: saline with Tween-80 96 % of control | dose: 50.0 mg/kg/injection, schedule: Q04DX003 (ip), vehicle: saline with Tween-80 101 % of control | [1] 98 % of control | [2] 104 % of control | [3] 100 % of control | [4] 97 % of control | [5] 101 % of control | [6] 93 % of control

COc1ccc([N+](=O)[O-])cc1NC(=O)Nc1cccc(F)c1
inactive: dose: 100.0 mg/kg/injection, schedule: Q01DX009 (ip), vehicle: gum acacia 90 % of control | dose: 200.0 mg/kg/injection, schedule: Q01DX009 (ip), vehicle: gum acacia 95 % of control | dose: 400.0 mg/kg/injection, schedule: Q01DX009 (ip), vehicle: gum acacia 90 % of control

O=C1NC(c2ccccc2)(c2ccccc2)C(=O)N1SC(Cl)(Cl)Cl
inactive: dose: 25.0 mg/kg/injection, schedule: Q04DX002 (ip), vehicle: Klucel (hydroxypropylcellulose) (HPC) 100 % of control | [17] 118 % of control

CC(C)CCOc1ccc(C(N)=S)c2ccccc12
inactive: [14] 112 % of control | [15] 112 % of control | [16] 102 % of control
